How the values were obtained:
[1] = system: primary human bronchial fibroblasts from IPF patients (TGF-β1-triggered αSMA); assay: Fibroblast-to-myofibroblast transition (FMT) assay, αSMA by high content analysis; conditions: for αSMA inhibition / transdifferentiation (in words): IPF donor fibroblasts, TGF-β1, 3 days, high content imaging; for IC50: Homo sapiens, Fibroblast, 72 h, read-out: αSMA inhibition IC50 (95% CI)
USP8 = target: T1, USP8 (Homo sapiens, UniProt P40818); assay: biochemical
T1 sequence (P40818 1-1118): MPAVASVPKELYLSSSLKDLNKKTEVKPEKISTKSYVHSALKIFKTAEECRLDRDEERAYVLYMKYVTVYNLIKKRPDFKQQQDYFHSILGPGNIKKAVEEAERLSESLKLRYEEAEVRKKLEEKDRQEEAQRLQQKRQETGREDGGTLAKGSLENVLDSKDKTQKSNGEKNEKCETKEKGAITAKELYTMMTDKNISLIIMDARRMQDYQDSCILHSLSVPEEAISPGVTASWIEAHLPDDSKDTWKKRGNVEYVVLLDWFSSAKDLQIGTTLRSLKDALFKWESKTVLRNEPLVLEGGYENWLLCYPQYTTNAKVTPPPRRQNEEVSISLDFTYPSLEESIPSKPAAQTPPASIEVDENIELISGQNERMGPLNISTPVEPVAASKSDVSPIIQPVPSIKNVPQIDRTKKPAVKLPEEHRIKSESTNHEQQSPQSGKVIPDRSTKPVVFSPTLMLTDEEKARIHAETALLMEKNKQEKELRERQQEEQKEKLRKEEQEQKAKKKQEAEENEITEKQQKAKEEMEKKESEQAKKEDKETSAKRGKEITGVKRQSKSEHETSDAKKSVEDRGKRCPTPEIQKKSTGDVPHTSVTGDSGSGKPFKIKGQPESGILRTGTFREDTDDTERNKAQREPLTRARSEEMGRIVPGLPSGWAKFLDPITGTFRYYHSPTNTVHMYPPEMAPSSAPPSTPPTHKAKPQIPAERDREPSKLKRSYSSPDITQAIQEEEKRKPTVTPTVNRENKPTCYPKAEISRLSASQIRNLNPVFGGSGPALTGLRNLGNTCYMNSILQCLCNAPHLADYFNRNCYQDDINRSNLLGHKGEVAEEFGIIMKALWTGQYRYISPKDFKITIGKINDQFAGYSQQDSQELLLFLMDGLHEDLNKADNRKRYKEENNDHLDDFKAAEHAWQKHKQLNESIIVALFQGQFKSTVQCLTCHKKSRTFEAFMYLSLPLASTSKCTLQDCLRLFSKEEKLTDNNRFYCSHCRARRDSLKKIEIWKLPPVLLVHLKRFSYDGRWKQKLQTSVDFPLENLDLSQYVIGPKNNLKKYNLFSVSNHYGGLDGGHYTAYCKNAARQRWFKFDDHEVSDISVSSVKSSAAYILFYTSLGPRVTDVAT

TRABID = target: T2, TRABID (Homo sapiens, UniProt Q9UGI0); assay: Biochemical DUB selectivity profiling assay: TRABID; conditions: Ub-Rho110 400 nM, buffer B; read-out: Biochemical IC50 range, TRABID
T2 sequence (Q9UGI0 1-708): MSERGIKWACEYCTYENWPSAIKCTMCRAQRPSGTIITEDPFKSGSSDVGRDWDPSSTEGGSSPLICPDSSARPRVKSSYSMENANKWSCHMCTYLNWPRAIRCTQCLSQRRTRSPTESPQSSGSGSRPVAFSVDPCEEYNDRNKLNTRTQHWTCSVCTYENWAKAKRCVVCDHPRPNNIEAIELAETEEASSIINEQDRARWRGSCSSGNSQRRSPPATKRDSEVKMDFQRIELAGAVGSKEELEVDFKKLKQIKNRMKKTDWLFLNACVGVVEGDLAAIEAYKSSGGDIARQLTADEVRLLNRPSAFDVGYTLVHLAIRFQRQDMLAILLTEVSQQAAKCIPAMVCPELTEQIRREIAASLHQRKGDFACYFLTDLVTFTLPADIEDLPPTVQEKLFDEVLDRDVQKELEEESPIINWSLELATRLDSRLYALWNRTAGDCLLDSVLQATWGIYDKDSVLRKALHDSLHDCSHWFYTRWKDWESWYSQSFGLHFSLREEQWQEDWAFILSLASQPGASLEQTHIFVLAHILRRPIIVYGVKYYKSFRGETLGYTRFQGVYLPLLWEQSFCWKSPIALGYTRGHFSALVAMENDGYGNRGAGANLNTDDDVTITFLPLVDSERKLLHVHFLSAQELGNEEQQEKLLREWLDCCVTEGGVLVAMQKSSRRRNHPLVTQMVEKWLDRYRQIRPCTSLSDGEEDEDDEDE
Procedure: DUB Assay Substrate Substrate
Buffer Concentration (nM) […]
Sepharose® 4B resin (GE Healthcare).
10 kDa molecular weight cut-off (MWCO)).
Fractions containing protein
Protein concentration was […]
reaction volume of 21 μL. […]
compound (final concentration 5 nM).
IC50 values were determined
Biochemical DUB selectivity profiling assays […]
in 40 µL total reaction volume.

UCHL1 = target: T3, UCHL1 (Homo sapiens, UniProt P09936); assay: biochemical
T3 sequence (P09936 1-223): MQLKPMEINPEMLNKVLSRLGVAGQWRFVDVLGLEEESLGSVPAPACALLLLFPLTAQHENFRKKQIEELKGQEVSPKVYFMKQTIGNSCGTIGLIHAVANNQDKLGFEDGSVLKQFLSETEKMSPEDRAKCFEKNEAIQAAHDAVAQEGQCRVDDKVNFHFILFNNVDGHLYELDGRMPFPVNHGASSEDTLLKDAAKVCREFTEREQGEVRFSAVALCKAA

[2] = Biochemical IC50 range, UCHL1, Ub-Lys-TAMRA 50 nM, buffer A
[3] = UCHL1 IC50 (FP, 95% CI), UCHL1 5 nM, 30 min preincubation, Ub-Lys-TAMRA 50 nM

Row | Compound | αSMA inhibition / transdifferentiation (in words) [1] | IC50 (USP8) [µM] | IC50 (TRABID) [µM] | IC50 (UCHL1; [2]) [µM] | IC50 (UCHL1; [3]) [µM] | IC50 [1] [µM] | IC50 (UCHL1; UCHL1 IC50 (FP), UCHL1 5 nM, 30 min preincubation, Ub-Lys-TAMRA 50 nM, bound = maximum assay concentration) [µM]
1 | N#CN1CCC[C@H]1C(=O)N1CCc2c(-c3c[nH]c4ncccc34)cccc21 [Compound 1] | inhibit transdifferentiation | > 10 | > 10 | < 0.1 | 0.09 | – | –
2 | C#Cc1cnc2[nH]cc(-c3cccc4c3CCN4C(=O)[C@@H]3CCCN3C#N)c2c1 [Compound 2] | inhibit transdifferentiation | – | > 10 | < 0.1 | 0.038 | – | –
3 | N#CN1CCC[C@@H]1C(=O)N1CCc2c(-c3c[nH]c4ncccc34)cccc21 [Compound 3] | not and minimal αSMA inhibition | > 10 | > 10 | > 10 | – | 2 | > 100
4 | CC(=O)O/N=C1\C(=O)N(Cc2cc(Cl)ccc2Cl)c2ccc(Cl)cc21 [LDN-57444, reference compound] | not and weak αSMA inhibition | > 10 | > 10 | – | – | 3.7 | –
